Values of other authors as cited in US9085793B2, “Ex vivo methods to identify circulating drug metabolites with drug interaction potential” (XPD Consulting, LLC, priority 2012, dated 2015).
Read-outs that look alike come from different tables or passages of the source.

Assays:
[1] = system: T1, CYP3A; conditions: CYP 3A; metabolite
T1 construct: rows headed: Ki Parent Drug (P); other: CYP 3A; parent drug; Ki Metabolite (M); metabolite; [I]/Ki Parent Drug (P); [I]/Ki Metabolite (M)

[2] = system: CYP3A; conditions: CYP 3A; in vivo inhibitory potential of metabolite over that of parent drug
[3] = biological target: T2, CYP2D6 (Homo sapiens, UniProt P10635); conditions: CYP 2D6; for IPM/IPP: in vivo inhibitory potential of metabolite over that of parent drug; for Ki: read-out: Ki Metabolite, metabolite
T2 sequence (P10635 whole entry): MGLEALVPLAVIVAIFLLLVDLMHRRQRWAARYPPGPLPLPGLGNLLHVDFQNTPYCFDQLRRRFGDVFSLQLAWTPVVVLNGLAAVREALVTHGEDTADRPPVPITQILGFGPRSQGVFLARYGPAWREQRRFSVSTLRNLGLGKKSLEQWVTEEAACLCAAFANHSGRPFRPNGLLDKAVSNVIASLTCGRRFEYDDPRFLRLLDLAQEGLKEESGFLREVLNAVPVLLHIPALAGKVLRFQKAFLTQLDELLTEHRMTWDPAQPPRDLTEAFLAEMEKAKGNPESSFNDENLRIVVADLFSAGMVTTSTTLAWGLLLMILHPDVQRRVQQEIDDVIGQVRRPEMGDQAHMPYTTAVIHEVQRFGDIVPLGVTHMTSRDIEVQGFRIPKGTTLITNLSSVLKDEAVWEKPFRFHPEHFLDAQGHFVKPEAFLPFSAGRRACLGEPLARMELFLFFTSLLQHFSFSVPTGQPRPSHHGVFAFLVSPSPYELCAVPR

[4] = biological target: T3, CYP2C9 (Homo sapiens, UniProt P11712)
T3 sequence (P11712 whole entry): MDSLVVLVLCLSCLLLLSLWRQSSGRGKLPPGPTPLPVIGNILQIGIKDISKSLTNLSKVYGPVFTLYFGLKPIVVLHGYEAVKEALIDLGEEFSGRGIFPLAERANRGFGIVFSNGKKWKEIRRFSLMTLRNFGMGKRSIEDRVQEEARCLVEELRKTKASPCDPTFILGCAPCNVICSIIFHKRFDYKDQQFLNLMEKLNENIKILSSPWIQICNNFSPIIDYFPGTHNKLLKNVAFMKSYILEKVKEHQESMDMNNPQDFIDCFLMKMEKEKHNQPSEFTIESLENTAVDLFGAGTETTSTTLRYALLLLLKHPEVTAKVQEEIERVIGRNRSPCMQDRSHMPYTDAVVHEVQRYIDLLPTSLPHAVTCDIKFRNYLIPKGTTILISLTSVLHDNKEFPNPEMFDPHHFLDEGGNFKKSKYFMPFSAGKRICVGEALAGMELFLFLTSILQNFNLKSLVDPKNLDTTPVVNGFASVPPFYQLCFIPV

[5] = in vivo
[6] = biological target: T3, CYP2C9; remark: listed apart in the source
[7] = biological target: CYP3A4 (Homo sapiens, UniProt P08684); conditions: human hepatocytes
CYP3A4, sequence (P08684 whole entry): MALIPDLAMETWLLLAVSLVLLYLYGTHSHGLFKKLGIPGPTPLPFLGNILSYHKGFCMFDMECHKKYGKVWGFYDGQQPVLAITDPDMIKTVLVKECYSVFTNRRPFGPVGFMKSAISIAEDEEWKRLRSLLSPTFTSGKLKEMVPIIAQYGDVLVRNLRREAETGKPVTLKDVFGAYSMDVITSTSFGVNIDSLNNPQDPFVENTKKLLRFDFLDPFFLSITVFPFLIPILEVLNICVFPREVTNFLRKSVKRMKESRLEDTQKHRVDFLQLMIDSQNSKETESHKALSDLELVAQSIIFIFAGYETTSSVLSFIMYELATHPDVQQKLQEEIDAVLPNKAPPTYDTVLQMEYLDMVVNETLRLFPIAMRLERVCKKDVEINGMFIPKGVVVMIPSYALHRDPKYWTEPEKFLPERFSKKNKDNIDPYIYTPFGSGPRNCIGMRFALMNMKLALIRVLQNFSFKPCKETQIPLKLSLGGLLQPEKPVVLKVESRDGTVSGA

[8] = biological target: T2, CYP2D6; conditions: human hepatocytes
[9] = biological target: T3, CYP2C9; conditions: read-out: Ki Metabolite, CYP 2C9
[10] = biological target: T2, CYP2D6; conditions: human liver microsomes
[11] = circulating plasma level (in vivo concentration) of metabolite

Row | Compound | [I] Metabolite (M) [11] [M] | IPM/IPP [3] | Ki [3] [µM] | other results
1 | CC(C)c1c(C(=O)Nc2ccccc2)c(-c2ccccc2)c(-c2ccc(F)cc2)n1CC[C@@H]1C[C@@H](O)CC(=O)O1 [Atorvastatin lactone] | 3e-09 |  |  | Ki [1]: 0.9 µM; IPM/IPP [2]: 5.5
2 | CCNCc1cc(Nc2ccnc3cc(Cl)ccc23)ccc1O [Desethylamodiaquine] | 8.2e-07 | 5.1 | 4.1 | 
3 | O=C(O)Cc1ccccc1Nc1c(Cl)cccc1Cl [Diclofenac] |  |  |  | Increase in Km on adding plasma (in words, FIG. 6) [4]: relatively large increase in Km; Increase in Km on addition of plasma [4]: more than 40 fold
4 | CC(NC(C)(C)C)C(O)c1cccc(Cl)c1 (centres unmarked) [Erythrobupropion] | 3.7e-07 | 15.3 | 1.7 | 
5 | CNCCC(Oc1ccc(C(F)(F)F)cc1)c1ccccc1 (centres unmarked) [Fluoxetine] |  |  |  | Plasma half-life [5]: 96 to 140 h
6 | C[C@H]1NC(C)(C)CO[C@]1(O)c1cccc(Cl)c1 [Hydroxybupropion] | 3.2e-06 | 17.0 | 13 | 
7 | Clc1ccc(COC(Cn2ccnc2)c2ccc(Cl)cc2Cl)c(Cl)c1 (centres unmarked) [Miconazole] |  |  |  | IC50 [6]: 2.02 ± 0.37 µM; IC50 ([6]; hepatocytes): 2.12 ± 0.37 µM
8 | Cc1ncc2n1-c1ccc(Cl)cc1C(c1ccccc1F)=NC2 [Midazolam] |  |  |  | Increase in Km ([7]; plasma versus medium): 5.7 fold; Km ([7]; read-out: Km Medium, cell culture medium (HMM)): 8.11 ± 0.65 µM; Km ([7]; read-out: Km Plasma, human plasma): 45.8 ± 4.38 µM
9 | CCCCc1oc2ccccc2c1C(=O)c1cc(I)c(OCCNCC)c(I)c1 [N-Desethylamiodarone] |  |  |  | [I] Metabolite (M) (in vivo): 1.5e-06 M
10 | CNCCCN1c2ccccc2CCc2ccc(Cl)cc21 [N-Desmethylclomipramine] |  | 4.2 | 7.9 | [I] Metabolite (M) (in vivo): 4.9e-07 M
11 | CNCC(c1ccc(OC)cc1)C1(O)CCCCC1 (centres unmarked) [N-Desmethylvenlafaxine] |  |  |  | [I] Metabolite (M) (in vivo): 9.3e-07 M
12 | NCCC(Oc1ccc(C(F)(F)F)cc1)c1ccccc1 (centres unmarked) [Norfluoxetine] |  |  | 0.2 | Plasma half-life [5]: about 16 days
13 | Cc1nc2n(c(=O)c1CCN1CCC(c3noc4cc(F)ccc34)CC1)CCCC2O (centres unmarked) [Paliperidone] | 4.6e-08 | 1.0 | 16 | Ki [1]: 80 µM; IPM/IPP [2]: 2.0
14 | OC(CCCN1CCC(O)(c2ccc(Cl)cc2)CC1)c1ccc(F)cc1 (centres unmarked) [Reduced haloperidol] | 8e-09 | 1.3 | 0.24 | 
15 | CN[C@H]1CC[C@@H](c2ccc(Cl)c(Cl)c2)c2ccccc21 [Sertraline] |  |  |  | IC50 ([8]; human plasma, read-out: IC50 Plasma): 13.1 ± 3.49 µM; IC50 ([8]; medium, read-out: IC50 Medium): 3.1 ± 0.34 µM
16 | Nc1ccc(S(=O)(=O)Nc2ccnn2-c2ccccc2)cc1 [Sulfaphenazole] |  |  |  | IC50 increased on addition of plasma ([6]; addition of plasma to human hepatocytes or human liver microsomes): more than 10 fold
17 | O=C1C(CCSc2ccccc2)C(=O)N(c2ccccc2)N1c1ccccc1 [Sulfinpyrazone sulfide] |  |  |  | Ki [9]: 27 µM
18 | C[C@H](NC(C)(C)C)[C@@H](O)c1cccc(Cl)c1 [Threobupropion] | 1.9e-06 | 24.8 | 5.4 | 
19 | COc1ccc2c(c1)[C@]13CCCC[C@@H]1[C@H](C2)N(C)CC3 [dextromethorphan] |  |  |  | Increase in Km on adding plasma (in words, FIG. 6) [10]: relatively small increase in Km; Increase in Km on addition of plasma [10]: less than six
